For this assay, the system named is Bacillus subtilis ATCC 6633. Nature of the assay: Determination of antibiotic activity, agar well diffusion, zones of growth inhibition. The format is cell-based. To be noted: nutrient 1.5% agar seeded with B. subtilis; 20 microlitres of test compound as a solution in ethanol (5-10 mg/L) per well; incubated overnight. How it is done: A 3 ml overnight culture of Bacillus subtilis ATCC 6633 was grown at 30% C in nutrient broth (Difco). 200 ml of nutrient 1.5% agar (difco) at 46% C was seeded with 1 ml of the B.subtilis culture and poured immediately into petri dishes (25 ml/plate). After drying the plates in a laminar flow hood for 15 minutes, wells ([…] in diameter) were cut using a cork borer and 20 microlitres of the test compound as a solution in ethanol (5-10 mg/L) was added to each well. The plates were kept at 4% C for 5-7 hours to allow the compound to diffuse, and the plates were then incubated overnight at 30% C.
(In agar diffusion tests the substance spreads into inoculated agar from a disc or well.)

Consider `COC1(C)CC(OC2C(C)C(=O)OC(C(C)C)C(C)(O)C(O)C(C)C(=O)C(C)CC(C)(O)C(OC3OC(C)CC(N(C)C)C3O)C2C)OC(C)C1O` (centres unmarked) [(i-but)-erythromycin A], for which the “zones of growth inhibition” value was “Clear zones of growth inhibition”. On to `CCC(C)C1OC(=O)C(C)C(OC2CC(C)(OC)C(O)C(C)O2)C(C)C(OC2OC(C)CC(N(C)C)C2O)C(C)(O)CC(C)C(=O)C(C)C(O)C1(C)O` (centres unmarked) [(s-pent)-erythromycin A], for which the “zones of growth inhibition” value was “Clear zones of growth inhibition”.

These data come from patent US7807418B2, “Method for producing hybrid polyketide synthases” (Biotica Technology Limited, priority 1996, dated 2010).
